Data: patent US11919856B2, “Compounds” (UCL BUSINESS LTD, priority 2018, dated 2024)

Legend:
Z α1-antitrypsin = Z α1-antitrypsin (Homo sapiens, UniProt P01009, E366K/V237A); assay: Circulating monomeric Z α1-antitrypsin in plasma of Z α1-antitrypsin transgenic mice; type: in vivo; design: a random insertion of the human Z α1-antitrypsin gene; from tissue; host or cells: liver and plasma of Z α1-antitrypsin transgenic mice (human Z transgene)
Method: In order to investigate the therapeutic potential of Compound 1 in Z α1-antitrypsin deficiency, the compound was tested in a transgenic mouse model engineered with a random insertion of the human Z α1-antitrypsin gene (Teckman et al. Am J Physiol Gastrointest Liver Physiol. 2004; 286:G851-G62). To determine a suitable dose regimen for Compound 1 in these studies the total and unbound exposure in transgenic mice was estimated in an in silico model.
To explore the PK-PD relationship of Compound 1, Z α1-antitrypsin transgenic animals were dosed with 100, 30 or 10 mg/kg Compound 1 three times a day and on day 6 blood and liver were harvested at 3 hr (˜Cmax) and 8 hr (Cmin) after the dose for the measurement of total and free drug in both tissues. Blood was also harvested for the measurement of monomeric Z α1-antitrypsin in plasma. Total concentrations of Compound 1 were determined by specific LC-MS/MS assay and the free unbound drug in both tissues was determined using equilibrium dialysis and used to derive unbound concentrations.
Recent work has shown that a significant fraction of the total Z α1-antitrypsin in the circulation is in the polymeric conformation (Tan et al. Eur Respir J. 2014; 43(5):1501-4). […] Monomeric Z α1-antitrypsin was measured in plasma samples following 6 days of dosing and levels were normalised to each animals' pre-dose control levels to account for the natural variation of Z α1-antitrypsin between animals. […]
Since Compound 1 blocks polymer formation in cells the effect of dosing Compound 1 on liver polymer levels was explored. […] On days 15 and 21 of dosing, changes of monomeric Z α1-antitrypsin plasma samples were determined as above, and increases of 7- to 8-fold over the pre-dosing baseline levels were observed, similar to the effect in animals dosed for 3 or 6 days, consistent with sustained target engagement through the dosing period. […] There was no difference observed in total liver polymer load via manual or quantitative scoring.

M α1-antitrypsin = biological target: T1, M α1-antitrypsin (Homo sapiens, UniProt P01009); assay: Compound association experiments (intrinsic tryptophan fluorescence), M α1-antitrypsin; type: binding
T1 construct: Alpha1-antitrypsin was purified from the plasma of ZZ and MM α1-antitrypsin homozygotes; from tissue; host or cells: plasma of MM homozygotes
Method: The intrinsic tryptophan fluorescence of α1-antitrypsin is dominated by Trp194 in the breach region (Tew et al. J Mol Biol. 2001 Nov. 9; 313(5):1161-9) and can be used to monitor the progress of compound binding. Plasma M and Z α1-antitrypsin were diluted to 0.2 mg/ml in 100 μM PBS, and Compound 1 (or an equivalent volume of DMSO) added to a concentration of 10 μM. Fluorescence (λex=280 nm, λem=330 nm) was monitored for at least 2 hours, and the half-time of change was calculated.
Kinetic data in stopped flow experiments were fitted to exponential decay curves with offset and linear slope, to account for a constant drift in the background, resulting in observed pseudo-first-order rate constants k(obs): y=A0·e^−k(obs)t+slope·t+offset where t=time and Ao=amplitude at t=0. The second-order on-rate was then obtained as the slope when plotting k(obs) values versus compound concentration. Off-rates were calculated from the on-rates and the KD values determined from the binding assays. Cell Biology

Sequence of Z α1-antitrypsin (P01009 25-418 V237A/E366K): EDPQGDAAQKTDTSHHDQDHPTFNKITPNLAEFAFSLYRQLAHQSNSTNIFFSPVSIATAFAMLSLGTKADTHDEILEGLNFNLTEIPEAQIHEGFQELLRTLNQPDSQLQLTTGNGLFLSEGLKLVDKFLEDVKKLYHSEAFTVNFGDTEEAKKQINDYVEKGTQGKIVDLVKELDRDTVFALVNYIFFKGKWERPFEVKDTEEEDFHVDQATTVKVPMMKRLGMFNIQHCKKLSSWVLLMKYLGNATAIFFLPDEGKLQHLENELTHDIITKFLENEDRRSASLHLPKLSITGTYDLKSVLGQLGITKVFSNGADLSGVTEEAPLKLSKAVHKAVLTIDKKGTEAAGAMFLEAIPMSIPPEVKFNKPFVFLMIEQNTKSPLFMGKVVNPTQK
T1 sequence (P01009 25-418): as the sequence (P01009 25-418 V237A/E366K) above, with A213V, K342E counted along it

Question: Which results are given for `CCC[C@@H](NC(=O)c1cccc2c1CC(=O)N2)[C@@H](O)c1cccc(F)c1C` [Compound 1, N-[(1S,2R)-1-(3-fluoro-2-methylphenyl)-1-hydroxypentan-2-yl]-2-oxo-2,3-dihydro-1H-indole-4-carboxamide]?
Answer: increase in circulating Z α1-antitrypsin (Z α1-antitrypsin; 30 mg/kg and 10 mg/kg three times a day, 6 days): significant, dose-dependent increases; increase of plasma concentrations of the serpin (Z α1-antitrypsin; transgenic mouse model): up to 8 fold; increase in circulating levels of Z α1-antitrypsin (Z α1-antitrypsin; within 3 days of dosing, maintained throughout the experiment): 7 fold; koff (M α1-antitrypsin; calculated from on-rate and KD, read-out: first-order dissociation rate): 1.6e-05 s⁻¹; kon (M α1-antitrypsin; read-out: second-order association rate): 210 M⁻¹ s⁻¹
